Structures can show the parent of a compound that is named as a salt.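 Five compound concentrations were applied to cells in 96-well plates for 48 hours; endpoints were derived by simple linear interpolation of the resulting dose-response curve. GI50: concentration for 50% inhibition of growth.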 The source made the active and inactive calls. No stated cut-off is given here; in the data, active = GI50 up to about 1.1 µM and inactive = higher.
Assays:
Assay in all cases: growth of human tumour cells (NCI), 48 h
SK-MEL-2 = tested on: SK-MEL-2
CCRF-CEM = tested on: CCRF-CEM
SW-620 = tested on: SW-620
SF-295 = tested on: SF-295
A549 = tested on: A549
M14 = tested on: M14
ACHN = tested on: ACHN
SNB-75 = tested on: SNB-75
MDA-MB-231 = tested on: MDA-MB-231
RPMI-8226 = tested on: RPMI-8226
UO-31 = tested on: UO-31
SK-MEL-28 = tested on: SK-MEL-28
KM12 = tested on: KM12
DU-145 = tested on: DU-145
OVCAR-4 = tested on: OVCAR-4
HOP-62 = tested on: HOP-62
SK-OV-3 = tested on: SK-OV-3
K562 = tested on: K562
HT-29 = tested on: HT-29
SF-539 = tested on: SF-539

| Compound | GI50 (SK-MEL-2) | GI50 (CCRF-CEM) | GI50 (SW-620) | GI50 (SF-295) | GI50 (A549) | GI50 (M14) | GI50 (ACHN) | GI50 (SNB-75) | GI50 (MDA-MB-231) | GI50 (RPMI-8226) | GI50 (UO-31) | GI50 (SK-MEL-28) | GI50 (KM12) | GI50 (DU-145) | GI50 (OVCAR-4) | GI50 (HOP-62) | GI50 (SK-OV-3) | GI50 (K562) | GI50 (HT-29) | GI50 (SF-539) |
| --- | --- | --- | --- | --- | --- | --- | --- | --- | --- | --- | --- | --- | --- | --- | --- | --- | --- | --- | --- | --- |
| CN(C)C(=O)C(F)(F)C(c1ccccc1Br)C1C(=O)N(C)C(=O)N(C)C1=O (configuration not stated) | > 100 µM (inactive) | > 100 µM (inactive) | > 100 µM (inactive) | > 100 µM (inactive) | > 100 µM (inactive) | > 100 µM (inactive) | > 100 µM (inactive) | > 100 µM (inactive) | > 100 µM (inactive) | > 100 µM (inactive) | > 100 µM (inactive) | > 100 µM (inactive) | > 100 µM (inactive) | > 100 µM (inactive) | > 100 µM (inactive) | > 100 µM (inactive) | > 100 µM (inactive) | > 100 µM (inactive) | – | – |
| CCCCCc1cc2cc3c(c(O)c2c(=O)[nH]1)C1(CC3)C(=O)c2c(O)c3c(c(O)c2C1=O)C(=O)C(OC)=CC3=O (configuration not stated) | 0.867 µM (active) | 0.0859 µM (active) | 0.442 µM (active) | 3.01 µM (inactive) | 0.845 µM (active) | 0.893 µM (active) | 0.522 µM (active) | 1.58 µM (inactive) | 0.479 µM (active) | 0.336 µM (active) | 0.687 µM (active) | 2.01 µM (inactive) | 1.26 µM (inactive) | 1.05 µM (active) | 0.822 µM (active) | 3.61 µM (inactive) | 2.61 µM (inactive) | 0.456 µM (active) | 0.718 µM (active) | – |
| COc1ccc2cc(-c3nc(N)nc(N4N=C(C)CC4(C)C)n3)c(=N)oc2c1 | 17.5 µM (inactive) | 16.1 µM (inactive) | – | 18.3 µM (inactive) | 24.9 µM (inactive) | 21.5 µM (inactive) | 16.3 µM (inactive) | – | 18.8 µM (inactive) | 16 µM (inactive) | 21.5 µM (inactive) | 16.9 µM (inactive) | 15.9 µM (inactive) | 15.8 µM (inactive) | 18 µM (inactive) | 22.2 µM (inactive) | 23.6 µM (inactive) | 16.4 µM (inactive) | 17.6 µM (inactive) | 16 µM (inactive) |
| C=CCOC(=O)CC[N+]1=CCC(c2ccccc2)(c2ccccc2)O1 | > 100 µM (inactive) | – | > 100 µM (inactive) | > 100 µM (inactive) | > 100 µM (inactive) | > 100 µM (inactive) | > 100 µM (inactive) | – | > 100 µM (inactive) | – | > 100 µM (inactive) | > 100 µM (inactive) | > 100 µM (inactive) | > 100 µM (inactive) | > 100 µM (inactive) | > 100 µM (inactive) | > 100 µM (inactive) | > 100 µM (inactive) | > 100 µM (inactive) | > 100 µM (inactive) |
| CC(C)C(C/C=C1/CC(CO)(COC(=O)CC(C(C)C)C(C)C)OC1=O)C(C)C (configuration not stated) | 15.2 µM (inactive) | 2.74 µM (inactive) | 0.991 µM (active) | 0.259 µM (active) | 0.298 µM (active) | 12.5 µM (inactive) | 1.79 µM (inactive) | 1.78 µM (inactive) | 4.21 µM (inactive) | – | 2.86 µM (inactive) | 14.2 µM (inactive) | 6.82 µM (inactive) | 13.2 µM (inactive) | 17.3 µM (inactive) | 1.34 µM (inactive) | 16.7 µM (inactive) | 0.389 µM (active) | 16.3 µM (inactive) | 11.2 µM (inactive) |
| CC1(C)O[C@@H]2COC(=O)[C@@H]2O1 | > 100 µM (inactive) | > 100 µM (inactive) | > 100 µM (inactive) | > 100 µM (inactive) | > 100 µM (inactive) | > 100 µM (inactive) | > 100 µM (inactive) | > 100 µM (inactive) | > 100 µM (inactive) | – | > 100 µM (inactive) | > 100 µM (inactive) | > 100 µM (inactive) | > 100 µM (inactive) | > 100 µM (inactive) | – | > 100 µM (inactive) | > 100 µM (inactive) | > 100 µM (inactive) | 2.95 µM (inactive) |
| C=C1C[C@@H]2CC[C@@]34C[C@H]5O[C@H]6[C@@H](O3)[C@H]3O[C@H](CC[C@@H]3O[C@H]6[C@H]5O4)CC(=O)C[C@@H]3[C@@H](OC)[C@@H](C[C@H](O)CN)O[C@H]3C[C@H]3O[C@@H](CC[C@@H]1O2)C[C@@H](C)C3=C [ERIBULIN MESYLATE] | 0.00607 µM (active) | – | 0.00241 µM (active) | 0.0065 µM (active) | 0.00197 µM (active) | 0.00309 µM (active) | 0.0556 µM (active) | – | 0.00255 µM (active) | 0.000516 µM (active) | 0.126 µM (active) | 0.00361 µM (active) | 0.000326 µM (active) | 0.00118 µM (active) | 0.00319 µM (active) | 0.00412 µM (active) | 0.000558 µM (active) | 0.000916 µM (active) | 0.000352 µM (active) | 0.000465 µM (active) |

Reference: ChEMBL document CHEMBL1201862, “PubChem BioAssay data set” (2004)
